A short description of data set [1]: Storage stability (hydrolysis) of cabergoline in 12205-1, HPLC. The data set is classed as physicochemical. The settings on record: room temperature, 40° C. and 50° C., FIG. 1b. As to the method: 0.0056 g of cabergoline was weighed in a vial. […] The mixture was vortexed well and then sonicated for 30 minutes. The suspension was filtered through a 0.2μ acrodisc. The filtrate was split into 3 vials. The vials were stored at room temperature ("RT"), 40° C. and 50° C. The vial stored at room temperature was wrapped in aluminum foil. 100 μL of sample was withdrawn as a function of time. 1 mL of pH 3.0 phosphate buffer was added to the sample and vortexed. The supernatant was taken and analyzed by HPLC as described above.

Data set [2] is described as follows: physchem. The settings on record: organic solvent or mixture.
Protocol: 0.00471 grams ("g") of cabergoline was added to 1 milliter ("mL") of perfluorooctanol (PFO). The suspension was sonicated for 15 minutes and then filtered through a 0.45μ filter. 100 microliters ("μL") of the filtrate was extracted with 1 mL of phosphate buffer (pH 3.0). 10 μL of the aqueous portion was analyzed for cabergoline by injecting in onto the HPLC. The mobile phase was made as follows:
5.2 mL of concentrated phosphoric acid, 6.0 mL of tetrabutyl ammonium hydroxide, and 6.612 g of dibasic ammonium phosphate were added to 1500 mL of deionized water. The mixture was stirred until it formed a clear solution. To the above solution 1800 mL of acetonitrile, 400 mL of tetrahydrofuran and sufficient water were added to make 4 liters of mobile phase. The mobile phase was pumped at 1.5 mL/minute through a cyano column. The eluent was monitored at 280 nanometers ("nm").
0.00126 g of cabergoline was added to 1 mL of perfluoro-2-methyl-oxahexanoic acid, methyl ester ("12205-1"). The suspension was sonicated for 15 minutes and then filtered through a 0.45μ filter. 100 μL of the filtrate was extracted with 1 mL of phosphate buffer (pH 3.0). 10 μL of the aqueous portion was analyzed for cabergoline by injecting it onto the HPLC.
Data set [3] is described as follows: physchem. The settings on record: 12205-1 perfluoro ester, organic solvent or mixture.
Data set [4] is described as follows: Solubility of betaxolol and dipivefrin, dissolved together, in 12205-1 (extraction into pH 3.0 phosphate buffer, reverse phase HPLC). The settings on record: 12205-1 perfluoro ester, organic solvent or mixture.
Data set [5] can be described thus: Solubility of dipivefrin in 12205-1 (excess drug stirred 30 minutes, filtered, extracted with pH 3.0 phosphate buffer). The format is physicochemical. The settings on record: 12205-1 perfluoro ester, organic solvent or mixture, vehicle 12205-1, excess dipivefrin alone, 0.2μ filter. The protocol: The solution was filtered through a 0.2μ filter and 100 μl of the sample was extracted with phosphate buffer (pH 3.0). The aqueous portion was analyzed for dipivefrin.

A short description of data set [6]: physchem. The settings on record: perfluorooctanol, organic solvent or mixture.
Protocol: (§1) 0.01847 g of leflunomide was added to 1 mL of perfluorooctanol ("PFO"). The suspension was sonicated for 15 minutes. The suspension was filtered through a 0.45μ filter and 100 μL of the filtrate was extracted with 1 mL of the mobile phase for leflunomide. The mobile phase consisted of 40:60 of acetonitrile: 0.01m NaH2 PO4 adjusted to pH 7.0. 10 μL of the extract was injected on to a C-18 reverse phase column. The sample was eluted with the mobile phase with a flow rate of 2 mL/minute and monitored at 254 nm.
(§2) 0.00207 g of leflunomide was added to 1 mL of perfluoro-2-methyl-oxahexanoic acid, methyl ester (12205-1). The suspension was filtered through a 0.45μ filter and 100 μL of the filtrate was extracted with 1 mL of the mobile phase of leflunomide. 10 μL of the extract was injected on to HPLC to determine the solubility of leflunomide.
A short description of data set [7]: Storage stability (hydrolysis) of leflunomide in 12205-1, HPLC. The data set is classed as physicochemical. The settings on record: 60° C. in an oven, FIG. 2b. The protocol:
The suspension was filtered and the filtrate was put on stability testing at 60° C. in an oven. 100 μL of sample was withdrawn as a function of time. The vehicle was evaporated and the residual sample was reconstituted in 1 mL of the mobile phase for leflunomide. The sample was analyzed by HPLC to determine the leflunomide content. […] The composition is therefore expected to be stable during storage.

Data set [8] in a line: Solubility of leflunomide in fluoroalkyl hydrocarbon vehicle (filtration, extraction into mobile phase, HPLC). The settings on record: 12205-1 perfluoro ester, organic solvent or mixture.
Protocol: as §1, §2

In brackets after ≈: the same amount, converted by molar mass.

A word on the solubility: it is how much of the substance goes into solution per volume.

Turning to `C=CCN1C[C@H](C(=O)N(CCCN(C)C)C(=O)NCC)C[C@@H]2c3cccc4[nH]cc(c34)C[C@H]21` [cabergoline], in data set [1], the “hydrolysis of cabergoline on storage” value is listed as “no hydrolysis”. For the same compound, the solubility in “physchem [2]” (12205-1 perfluoro ester) was found to be 1040 µg/mL (≈ 2290 µM); in the data set “physchem [2]” (perfluorooctanol), 2700 µg/mL (≈ 5980 µM).
For the compound `CC(C)NCC(O)COc1ccc(CCOCC2CC2)cc1` (stereo not drawn) [betaxolol], in the data set “physchem [3]”, the solubility is > 1000 µg/mL.
`CNCC(O)c1ccc(OC(=O)C(C)(C)C)c(OC(=O)C(C)(C)C)c1` (stereo not drawn) [dipivefrin]: in data set [4], the solubility was > 1000 µg/mL. Besides, in data set [5], the solubility at 0.5 h is > 1000 µg/mL.
As to `Cc1oncc1C(=O)Nc1ccc(C(F)(F)F)cc1` [leflunomide], the solubility in the data set “physchem [6]” came out at 2000 µg/mL (≈ 7400 µM); in data set [8] it was 238 µg/mL (≈ 881 µM). Moreover, the “hydrolysis of leflunomide on storage” value in data set [7] is recorded as “no hydrolysis”.

(Values after patent publication US5874469A, “Fluoroalkyl hydrocarbons for administering water insoluble or unstable drugs” (Alcon Laboratories, Inc., priority 1996, dated 1999).)
